Where two headings read alike, the source gives them in different places. Each block holds one compound with its values, some of them ahead of it.
Legend:
[1] = log P by HPLC on reversed-phase column (EEC Directive 79/831 Annex V.A8); format: physicochemical; details: pH 7.8, 0.001 molar aqueous ammonium hydrogencarbonate/acetonitrile, 55° C., read-out: log P (neutral)
From the text: Called log P (neutral) in the table.

Phaedon cochleariae = Phaedon cochleariae spray test; format: in vivo; details: 500 g/ha, after 7 days, larvae on Chinese cabbage leaf discs
Procedure: Phaedon cochleariae—Spray Test
(§1) Solvent: 78.0 parts by weight of acetone • • 1.5 parts by weight of dimethylformamide
(§2) Emulsifier: alkylaryl polyglycol ether
(§3) To produce a suitable preparation of active compound, 1 part by weight of active compound is dissolved using the stated parts by weight of solvent and made up with water containing an emulsifier concentration of 1000 ppm until the desired concentration is attained. To produce further test concentrations, the preparation is diluted with emulsifier-containing water.
After 7 days, the efficacy in % is determined. 100% means that all the beetle larvae have been killed; 0% means that no beetle larvae have been killed.

Tetranychus urticae = Tetranychus urticae spray test, OP-resistant; format: in vivo; details: after 6 days, bean leaf discs
Procedure: Tetranychus urticae—Spray Test, OP-Resistant
as §1, §2, §3
Discs of bean leaves (Phaseolus vulgaris) infested with all stages of the greenhouse red spider mite (Tetranychus urticae) are sprayed with an active compound preparation of the desired concentration.
After 6 days, the efficacy in % is determined. 100% means that all the spider mites have been killed; 0% means that no spider mites have been killed.

Boophilus microplus = Boophilus microplus injection test; format: in vivo; details: 20 μg/animal, assessed after 7 days
Procedure: Boophilus microplus—Injection Test
(§4) Solvent: dimethyl sulphoxide
To produce a suitable preparation of active compound, 10 mg of active compound are mixed with 0.5 ml of solvent and the concentrate is diluted with solvent to the desired concentration.
1 μl of the active compound solution is injected into the abdomen of 5 engorged adult female cattle ticks (Boophilus microplus). The animals are transferred into dishes and kept in a climate-controlled room.
Efficacy is assessed after 7 days by laying of fertile eggs. Eggs which are not visibly fertile are stored in a climate-controlled cabinet until the larvae hatch after about 42 days. An efficacy of 100% means that none of the ticks has laid any fertile eggs; 0% means that all the eggs are fertile.

Myzus persicae = Myzus persicae spray test (Chinese cabbage leaf discs); format: in vivo; details: 500 g/ha, after 6 days
Procedure: Myzus persicae—Spray Test Solvent: 78 parts by weight of acetone • • 1.5 parts by weight of dimethylformamide Emulsifier: alkylaryl polyglycol ether […] To produce further test concentrations, the preparation is diluted with emulsifier-containing water. Discs of Chinese cabbage leaves (Brassica pekinensis) infested by all stages of the green peach aphid (Myzus persicae) are sprayed with an active compound preparation of the desired concentration.

Ctenocephalides felis [2] = experiment: Ctenocephalides felis in vitro contact test with adult cat fleas; format: in vivo; details: 5 μg/cm^2 (500 g/ha), after 48 h
Procedure: Ctenocephalides felis—In Vitro Contact Tests with Adult Cat Fleas
For the coating of the test tubes, 9 mg of active compound are first dissolved in 1 ml of acetone p.a. and then diluted to the desired concentration with acetone p.a. 250 μl of the solution are distributed homogeneously on the inner walls and the base of a 25 ml test tube by turning and rocking on an orbital shaker (rocking rotation at 30 rpm for 2 h). With 900 ppm active compound solution and internal surface 44.7 cm^2, given homogeneous distribution, an area-based dose of 5 μg/cm^2 is achieved.
After the solvent has evaporated off, the tubes are populated with 5-10 adult cat fleas (Ctenocephalides felis), sealed with a perforated plastic lid and incubated in a horizontal position at room temperature and ambient humidity. After 48 h, efficacy is determined. To this end, the test tubes are stood upright and the fleas are knocked to the base of the tube. Fleas which remain motionless at the base or move in an uncoordinated manner are considered to be dead or moribund.
100% efficacy means that all the fleas were dead or moribund. 0% efficacy means that no fleas were harmed.

Musca domestica = Musca domestica test; format: in vivo; details: after 2 days, adult houseflies
Procedure: as §4
(§5) To produce a suitable preparation of active compound, 10 mg of active compound are mixed with 0.5 ml of dimethyl sulphoxide, and the concentrate is diluted with water to the desired concentration.
Vessels containing a sponge treated with sugar solution and the active compound preparation of the desired concentration are populated with 10 adult houseflies (Musca domestica).
After 2 days, the kill in % is determined. 100% means that all of the flies have been killed; 0% means that none of the flies have been killed.

Spodoptera frugiperda = Spodoptera frugiperda spray test (maize leaf discs); format: in vivo; details: 500 g/ha, after 7 days, caterpillars on maize leaf discs
Procedure: Spodoptera frugiperda—Spray Test Solvent: 78.0 parts by weight of acetone • • 1.5 parts by weight of dimethylformamide Emulsifier: alkylaryl polyglycol ether […] To produce further test concentrations, the preparation is diluted with emulsifier-containing water. Leaf discs of maize (Zea mays) are sprayed with an active compound preparation of the desired concentration and, after drying, populated with caterpillars of the armyworm (Spodoptera frugiperda).

Ctenocephalides felis [3] = experiment: Ctenocephalides felis oral test; format: in vivo; details: 100 ppm in citrated cattle blood, after 2 days
From the text: Ctenocephalides felis—Oral Test Solvent: dimethyl sulphoxide […] Dilution with citrated cattle blood gives the desired concentration. About 20 unfed adult cat fleas (Ctenocephalides felis) are placed into a chamber which is closed at the top and bottom with gauze. A metal cylinder whose bottom end is closed with parafilm is placed onto the chamber. The cylinder contains the blood/active compound preparation, which can be imbibed by the fleas through the parafilm membrane.

Lucilia cuprina = Lucilia cuprina test; format: in vivo; details: 100 ppm, after 2 days, L1 larvae
Procedure: as §4, §5
About 20 L1 larvae of the Australian sheep blowfly (Lucilia cuprina) are transferred into a test vessel containing minced horsemeat and the active compound preparation of the desired concentration.
After 2 days, the kill in % is determined. 100% means that all the larvae have been killed; 0% means that no larvae have been killed.

Meloidogyne incognita = Meloidogyne incognita test; format: in vivo; details: 20 ppm, after 14 days, lettuce
Procedure: Meloidogyne incognita Test
Solvent: 125.0 parts by weight of acetone
To produce a suitable preparation of active compound, 1 part by weight of active compound is mixed with the stated amount of solvent and the concentrate is diluted with water to the desired concentration.
Vessels are filled with sand, active compound solution, an egg/larvae suspension of the southern root-knot nematode (Meloidogyne incognita) and lettuce seeds. The lettuce seeds germinate and the plants develop. The galls develop on the roots.
After 14 days, the nematicidal efficacy in % is determined by the formation of galls. 100% means that no galls were found; 0% means that the number of galls on the treated plants corresponds to the untreated control.

[4] = reversed-phase HPLC column (C18)

Compound: Cn1c(-c2nc(Cl)ccc2Cl)nc2cc(C(F)(F)F)ncc21 [2-(3,6-Dichloro-2-pyridyl)-3-methyl-6-(trifluoromethyl)imidazo[4,5-c]pyridine]
chromatographic logP [1]: 2.81

chromatographic logP [1, 4]: 3.06
Compound: CCSc1ccc(Cl)nc1-c1nc2cc(C(F)(F)F)ncc2n1C [2-(6-Chloro-3-ethylsulphanyl-2-pyridyl)-3-methyl-6-(trifluoromethyl)imidazo[4,5-c]pyridine]

chromatographic logP [1, 4]: 2.54
Compound: CCS(=O)(=O)c1ccc(Cl)nc1-c1nc2cc(C(F)(F)F)ncc2n1C [2-(6-Chloro-3-ethylsulphonyl-2-pyridyl)-3-methyl-6-(trifluoromethyl)imidazo[4,5-c]pyridine]

Compound: CCS(=O)(=O)c1ccc(-n2cnc(S(C)(=O)=O)n2)nc1-c1nc2cc(C(F)(F)F)ncc2n1C [Example 5]
efficacy (Phaedon cochleariae): 100% | efficacy (Tetranychus urticae; 500 g/ha): 90% | efficacy (laying of fertile eggs) (Boophilus microplus): 90% | efficacy (Myzus persicae): 90%

Compound: CCS(=O)(=O)c1ccc(-n2ccc(C(F)F)n2)nc1-c1nc2cc(C(F)(F)F)ncc2n1C [Example 8]
efficacy (Ctenocephalides felis [2]): 100% | efficacy (Phaedon cochleariae): 100% | efficacy (kill) (Musca domestica; 100 ppm): 100% | efficacy (Spodoptera frugiperda): 100% | efficacy (kill) (Ctenocephalides felis [3]): 95% | efficacy (laying of fertile eggs) (Boophilus microplus): 95% | efficacy (kill) (Lucilia cuprina): 100% | efficacy (Myzus persicae): 100%

Compound: CCS(=O)(=O)c1ccc(-n2cc(C3CC3)cn2)nc1-c1nc2cc(C(F)(F)F)ncc2n1C [Example 13]
efficacy (Phaedon cochleariae): 100% | efficacy (kill) (Musca domestica; 100 ppm): 100% | efficacy (Spodoptera frugiperda): 100% | efficacy (kill) (Ctenocephalides felis [3]): 80% | efficacy (kill) (Lucilia cuprina): 100%

Compound: CCS(=O)(=O)c1ccc(-n2cnc(Cl)n2)nc1-c1nc2cc(C(F)(F)F)ncc2n1C [Example 18]
efficacy (Ctenocephalides felis [2]): 100% | efficacy (Phaedon cochleariae): 100% | efficacy (kill) (Musca domestica; 20 ppm): 100% | efficacy (kill) (Ctenocephalides felis [3]): 100% | efficacy (kill) (Lucilia cuprina): 100% | efficacy (Myzus persicae): 100%

Compound: CCS(=O)(=O)c1ccc(-n2cc(C#N)cn2)nc1-c1nc2cc(C(F)(F)F)ncc2n1C [Example 19]
efficacy (Phaedon cochleariae): 100% | efficacy (kill) (Musca domestica; 100 ppm): 100% | efficacy (Spodoptera frugiperda): 100% | efficacy (kill) (Ctenocephalides felis [3]): 100% | efficacy (kill) (Lucilia cuprina): 100% | efficacy (Myzus persicae): 90%

chromatographic logP [1, 4]: 3.13
Compound: CCS(=O)(=O)c1ccc(-c2ccsc2)nc1-c1nc2cc(C(F)(F)F)ncc2n1C [Example 20, 2-[3-Ethylsulphonyl-6-(3-thienyl)-2-pyridyl]-3-methyl-6-(trifluoromethyl)imidazo[4,5-c]pyridine]
efficacy (kill) (Lucilia cuprina): 100%

Compound: CCS(=O)(=O)c1ccc(-n2ccc(C#N)n2)nc1-c1nc2cc(C(F)(F)F)ncc2n1C [Example 22]
efficacy (Phaedon cochleariae): 100% | efficacy (kill) (Musca domestica; 100 ppm): 80% | efficacy (Spodoptera frugiperda): 100% | efficacy (kill) (Ctenocephalides felis [3]): 100% | efficacy (laying of fertile eggs) (Boophilus microplus): 80% | efficacy (kill) (Lucilia cuprina): 100%

Compound: CCS(=O)(=O)c1ccc(-n2cc(C(F)(F)F)nn2)nc1-c1nc2cc(C(F)(F)F)ncc2n1C [Example 24]
efficacy (kill) (Musca domestica; 100 ppm): 80% | efficacy (Spodoptera frugiperda): 100% | efficacy (laying of fertile eggs) (Boophilus microplus): 80% | efficacy (kill) (Lucilia cuprina): 100%

chromatographic logP [1, 4]: 3.34
Compound: CCS(=O)(=O)c1ccc(-n2cc(C(F)(F)F)cn2)nc1-c1nc2cc(C(F)(F)F)ncc2n1C [Example 26, 2-[3-Ethylsulphonyl-6-[4-(trifluoromethyl)pyrazol-1-yl]-2-pyridyl]-3-methyl-6-(trifluoromethyl)-imidazo[4,5-c]pyridine]
efficacy (Phaedon cochleariae): 100% | efficacy (kill) (Musca domestica; 100 ppm): 90% | efficacy (Spodoptera frugiperda): 100% | efficacy (kill) (Lucilia cuprina): 100%

Compound: CCS(=O)(=O)c1ccc(-n2ccnc2)nc1-c1nc2cc(C(F)(F)F)ncc2n1C [Example 33]
efficacy (Ctenocephalides felis [2]): 100% | efficacy (Phaedon cochleariae): 100% | efficacy (Tetranychus urticae; 500 g/ha): 90% | efficacy (kill) (Ctenocephalides felis [3]): 100% | efficacy (laying of fertile eggs) (Boophilus microplus): 80% | efficacy (Myzus persicae): 90%

Compound: CCS(=O)(=O)c1ccc(-n2cc(Cl)cn2)nc1-c1nc2cc(C(F)(F)F)ncc2n1C [Example 36]
efficacy (Phaedon cochleariae): 100% | efficacy (kill) (Musca domestica; 100 ppm): 85% | efficacy (Spodoptera frugiperda): 100% | efficacy (kill) (Ctenocephalides felis [3]): 100% | efficacy (laying of fertile eggs) (Boophilus microplus): 90% | efficacy (kill) (Lucilia cuprina): 100%

Compound: CCS(=O)(=O)c1ccc(-n2ccc(CS(C)(=O)=O)n2)nc1-c1nc2cc(C(F)(F)F)ncc2n1C [Example 40]
efficacy (Phaedon cochleariae): 100% | efficacy (Tetranychus urticae; 500 g/ha): 90% | efficacy (Myzus persicae): 90%

Compound: CCS(=O)(=O)c1ccc(-n2ccc(C[S+](C)[O-])n2)nc1-c1nc2cc(C(F)(F)F)ncc2n1C (stereo not shown) [Example 49]
efficacy (Phaedon cochleariae): 100% | efficacy (Tetranychus urticae; 500 g/ha): 90% | efficacy (Myzus persicae): 90%

Compound: CCS(=O)(=O)c1ccc(-n2cc(F)cn2)nc1-c1nc2cc(C(F)(F)C(F)(F)F)ncc2n1C [Example 59]
efficacy (Phaedon cochleariae): 100% | efficacy (kill) (Musca domestica; 100 ppm): 95% | efficacy (Spodoptera frugiperda): 100% | efficacy (kill) (Ctenocephalides felis [3]): 100% | efficacy (laying of fertile eggs) (Boophilus microplus): 90% | efficacy (kill) (Lucilia cuprina): 100%

Compound: CCS(=O)(=O)c1ccc(-c2ccncc2)nc1-c1nc2cc(C(F)(F)F)ncc2n1C [Example 78]
efficacy (Phaedon cochleariae): 100% | efficacy (Tetranychus urticae; 100 g/ha): 90%

Compound: CCS(=O)(=O)c1ccc(-c2cccs2)nc1-c1nc2cc(C(F)(F)F)ncc2n1C [Example 79]
efficacy (Tetranychus urticae; 100 g/ha): 90%

Compound: CCS(=O)(=O)c1ccc(-c2ccco2)nc1-c1nc2cc(C(F)(F)F)ncc2n1C [Example 80]
efficacy (Tetranychus urticae; 500 g/ha): 90%

Compound: CCS(=O)(=O)c1ccc(-c2cnc(Cl)n2C)nc1-c1nc2cc(C(F)(F)F)ncc2n1C [Example 81]
nematicidal efficacy (formation of galls) (Meloidogyne incognita): 100% | efficacy (Phaedon cochleariae): 100% | efficacy (Spodoptera frugiperda): 83% | efficacy (Myzus persicae): 90%

chromatographic logP [1, 4]: 1.68
Compound: CNc1cnc(C(F)(F)C(F)(F)F)cc1N [II-1, N3-Methyl-6-(1,1,2,2,2-pentafluoroethyl)pyridine-3,4-diamine]

Reference: patent US10087192B2, “2-(het)aryl-substituted fused bicyclic heterocycle derivatives as pesticides” (BAYER CROPSCIENCE AKTIENGESELLSCHSAFT, priority 2015, dated 2018)
